Among the data in US20060161001A1, “Substituted heterocyclic compounds and methods of use” (Amgen Inc., priority 2004, published 2006) are IC50 values, retold here.

The subject of this test is LPS induced TNF release. Briefly: THP1 cell assay (LPS induced TNF release). Format: cell-based. Conditions: Homo sapiens, THP-1; THP1 cells, LPS induced TNF-α secretion, 3 h at 37° C. In a few lines:
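THP1 cells (1E6/mL) were stimulated with LPS and 3-fold serial compound dilutions for 3 h at 37 °C. Secreted TNF-α was quantified by ECL sandwich immunoassay. Percent of DMSO control was fitted to a 4-parameter equation.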

Molecules are shown by their SMILES.

The IC50 is the concentration that inhibits the measured activity by half. Lower therefore signals greater potency. Consider `C[C@@H](Cc1cccc([C@@H](C)N)c1)Nc1nccc(N2CCCc3ccc(-c4ccccc4)nc32)n1` [Example 91, N-((S)-1-(3-((R)-1-Aminoethyl)phenyl)propan-2-yl)-4-(7-phenyl-3,4-dihydro-1,8-naphthyridin-1(2H)-yl) pyrimidin-2-amine], for which the IC50 was ≤ 20 µM. On to `C[C@@H](Cc1cccc([C@@H](C)NC(=O)OC(C)(C)C)c1)Nc1nccc(N2CCOc3cnc(-c4ccccc4)nc32)n1` [Example 99, tert-Butyl (R)-1-(3-((S)-2-(4-(2-phenyl-6,7-dihydropyrimido[5,4-b][1,4]oxazin-8-yl)pyrimidin-2-ylamino)propyl)phenyl)ethylcarbamate], for which the IC50 is ≤ 20 µM. As to `C[C@@H](Cc1cccc([C@@H](C)N)c1)Nc1nccc(N2CCOc3cnc(-c4ccccc4)nc32)n1` [Example 100, N-((S)-1-(3-((R)-1-Aminoethyl)phenyl)propan-2-yl)-4-(2-phenyl-6,7-dihydropyrimido[5,4-b][1,4]oxazin-8-yl)pyrimidin-2-amine], the IC50 is ≤ 20 µM. In the case of `N[C@H]1CC[C@H](Nc2nccc(N3CCOc4cnc(-c5ccccc5)nc43)n2)CC1` [Example 102, (1R,4R)-N^1-(4-(2-Phenyl-6,7-dihydropyrimido[5,4-b][1,4]oxazin-8-yl)pyrimidin-2-yl)cyclohexane-1,4-diamine], the IC50 is ≤ 20 µM.

For the molecule `c1ccc(-c2ncc3c(n2)N(c2ccnc(NC4CCNCC4)n2)CCO3)cc1` [Example 106, 4-(2-Phenyl-6,7-dihydropyrimido[5,4-b][1,4]oxazin-8-yl)-N-(piperidin-4-yl)-pyrimidin-2-amine], the IC50 was ≤ 20 µM.

Take `CC(=O)N1CCC(Nc2nccc(N3CCOc4cnc(-c5ccccc5)nc43)n2)CC1` [Example 107, 1-(4-(4-(2-Phenyl-6,7-dihydropyrimido[5,4-b][1,4]oxazin-8-yl)pyrimidin-2-yl-amino)piperidin-1-yl)ethanone]: the IC50 is ≤ 20 µM. Regarding `C[C@@H](Cc1cccc(C(C)(C)N)c1)Nc1nccc(N2CCOc3cnc(-c4ccccc4)nc32)n1` [Example 108, (S)-N-(1-(3-(2-Aminopropan-2-yl)phenyl)propan-2-yl)-4-(2-phenyl-6,7-dihydropyrimido[5,4-b][1,4]oxazin-8-yl)pyrimidin-2-amine], the IC50 was ≤ 20 µM.

For `C[C@H](N)c1cccc(C[C@H](C)Nc2nccc(N3CCCc4cnc(-c5ccccc5)cc43)n2)c1` [Example 109, N-((S)-1-(3-((S)-1-Aminoethyl)phenyl)propan-2-yl)-4-(7-phenyl-3,4-dihydro-1,6-naphthyridin-1(2H)-yl)pyrimidin-2-amine], the IC50 is ≤ 20 µM.
